In ChEMBL document CHEMBL1124351, “Syntheses and bioevaluation of substituted dihydropyridines for pregnancy-interceptive activity in hamsters” (1989):

Tests used:
[1] = target: T1, Progesterone receptor (Oryctolagus cuniculus) (UniProt P06186); assay: Percent inhibition of [3H]- progesterone binding to rabbit uterine progesterone receptor, at 10e-5 M compound concentration; conditions: at 10 µM
T1 sequence (whole entry): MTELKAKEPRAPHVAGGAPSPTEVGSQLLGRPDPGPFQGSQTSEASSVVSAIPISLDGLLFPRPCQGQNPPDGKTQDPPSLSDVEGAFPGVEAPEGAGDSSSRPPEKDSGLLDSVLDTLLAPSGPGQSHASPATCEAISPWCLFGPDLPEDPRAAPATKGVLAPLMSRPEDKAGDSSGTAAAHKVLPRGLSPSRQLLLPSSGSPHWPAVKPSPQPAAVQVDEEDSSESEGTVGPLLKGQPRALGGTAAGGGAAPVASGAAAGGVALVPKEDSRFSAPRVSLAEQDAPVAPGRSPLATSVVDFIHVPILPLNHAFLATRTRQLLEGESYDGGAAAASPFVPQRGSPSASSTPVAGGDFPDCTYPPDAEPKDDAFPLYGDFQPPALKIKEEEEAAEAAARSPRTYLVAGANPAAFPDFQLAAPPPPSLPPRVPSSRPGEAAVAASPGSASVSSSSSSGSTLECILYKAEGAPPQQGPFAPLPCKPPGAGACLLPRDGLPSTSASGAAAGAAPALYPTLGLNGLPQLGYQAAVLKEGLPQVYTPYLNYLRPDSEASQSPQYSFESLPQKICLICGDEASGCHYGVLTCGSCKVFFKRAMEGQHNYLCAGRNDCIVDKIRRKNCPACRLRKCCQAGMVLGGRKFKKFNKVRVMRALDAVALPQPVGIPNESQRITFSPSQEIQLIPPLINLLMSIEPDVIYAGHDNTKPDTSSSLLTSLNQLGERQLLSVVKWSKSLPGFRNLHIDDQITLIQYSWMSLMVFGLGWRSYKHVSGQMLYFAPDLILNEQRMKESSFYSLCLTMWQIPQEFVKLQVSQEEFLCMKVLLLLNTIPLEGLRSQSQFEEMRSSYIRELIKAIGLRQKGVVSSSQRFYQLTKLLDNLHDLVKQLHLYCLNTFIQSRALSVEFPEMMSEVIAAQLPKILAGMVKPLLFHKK

[2] = target: T1, Progesterone receptor (Oryctolagus cuniculus); assay: Percent inhibition of [3H]- progesterone binding to rabbit uterine progesterone receptor, at 10e-6 M compound concentration; conditions: at 1 µM
[3] = target: T1, Progesterone receptor (Oryctolagus cuniculus); assay: Percent inhibition of [3H]- progesterone binding to rabbit uterine progesterone receptor, at 10e-8 M compound concentration; conditions: at 0.01 µM
[4] = target: T1, Progesterone receptor (Oryctolagus cuniculus); assay: Percent inhibition of [3H]- progesterone binding to rabbit uterine progesterone receptor, at 10e-9 M compound concentration; conditions: at 0.001 µM
[5] = target: T1, Progesterone receptor (Oryctolagus cuniculus); assay: Percent inhibition of [3H]- progesterone binding to rabbit uterine progesterone receptor, at 10e-7 M compound concentration; conditions: at 0.1 µM
Cricetinae gen. sp. [6] = assay: Activity against pregnancy-interceptive activity in Syrian golden hamsters, when administered, at a dose of 8.40 mmol/kg; assay type: functional, Cricetulus griseus
[7] = test system: Progesterone receptor (Mesocricetus auratus); assay: Percent inhibition of [3H]- progesterone binding to Syrian golden hamster uterine cytosol progesterone receptor, at 10e-5 M compound concentration; conditions: at 10 µM
[8] = test system: Progesterone receptor (Mesocricetus auratus); assay: Percent inhibition of [3H]- progesterone binding to Syrian golden hamster uterine cytosol progesterone receptor, at 10e-7 M compound concentration; conditions: at 0.1 µM
[9] = test system: Progesterone receptor (Mesocricetus auratus); assay: Percent inhibition of [3H]- progesterone binding to Syrian golden hamster uterine cytosol progesterone receptor, at 10e-8 M compound concentration; conditions: at 0.01 µM
[10] = test system: Progesterone receptor (Mesocricetus auratus); assay: Percent inhibition of [3H]- progesterone binding to Syrian golden hamster uterine cytosol progesterone receptor, at 10e-9 M compound concentration; conditions: at 0.001 µM
[11] = test system: Progesterone receptor (Mesocricetus auratus); assay: Percent inhibition of [3H]- progesterone binding to Syrian golden hamster uterine cytosol progesterone receptor, at 10e-6 M compound concentration; conditions: at 1 µM
Cricetinae gen. sp. [12] = assay: Activity against pregnancy-interceptive activity in Syrian golden hamsters, when administered, at a dose of 13.85 mmol/kg; assay type: functional
Cricetinae gen. sp. [13] = assay: Activity against pregnancy-interceptive activity in Syrian golden hamsters, when administered, at a dose of 26.88 mmol/kg; assay type: functional
Cricetinae gen. sp. [14] = assay: Activity against pregnancy-interceptive activity in Syrian golden hamsters, when administered, at a dose of 7.97 mmol/kg; assay type: functional, Cricetulus griseus
Cricetinae gen. sp. [15] = assay: Activity against pregnancy-interceptive activity in Syrian golden hamsters, when administered, at a dose of 9.31 mmol/kg; assay type: functional
Cricetinae gen. sp. [16] = assay: Activity against pregnancy-interceptive activity in Syrian golden hamsters, when administered, at a dose of 9.54 mmol/kg; assay type: functional

Row | SMILES | inhibition [1] [%] | inhibition [2] [%] | inhibition [3] [%] | inhibition [4] [%] | inhibition [5] [%] | inhibition [7] [%] | inhibition [8] [%] | inhibition [9] [%] | inhibition [10] [%] | inhibition [11] [%] | Activity (Cricetinae gen. sp. [6]) | Activity (Cricetinae gen. sp. [12]) | Activity (Cricetinae gen. sp. [13]) [mean] | Activity (Cricetinae gen. sp. [14]) | Activity (Cricetinae gen. sp. [15]) | Activity (Cricetinae gen. sp. [16])
1 | COC(=O)C1=C(C)N=C(C)/C(=C(\O)OC)C1c1ccc(N)c([N+](=O)[O-])c1 (stereo unspecified) | 5 | 1 | 0 | 0 | 0 | 10 | 5 | 0 | 0 | 5 | – | 7 | – | – | – | –
2 | COC(=O)Nc1nc2cc(C3C(C(=O)OC)=C(C)N=C(C)/C3=C(/O)OC)ccc2n1Cc1ccccc1 (stereo unspecified) | – | – | – | – | – | – | – | – | – | – | – | – | 3.58 | – | – | –

Further lines, with some results ahead:

Row | inhibition [1] [%] | inhibition [2] [%] | inhibition [3] [%] | inhibition [4] [%] | inhibition [5] [%] | inhibition [7] [%] | inhibition [8] [%] | inhibition [9] [%] | inhibition [10] [%] | inhibition [11] [%] | SMILES | Activity (Cricetinae gen. sp. [6]) | Activity (Cricetinae gen. sp. [12]) | Activity (Cricetinae gen. sp. [13]) [mean] | Activity (Cricetinae gen. sp. [14]) | Activity (Cricetinae gen. sp. [15]) | Activity (Cricetinae gen. sp. [16])
3 | 18 | 12 | 0 | 0 | 5 | 16 | 8 | 5 | 0 | 15 | COC(=O)C1=C(C)N=C(C)/C(=C(/O)OC)C1c1ccc2nc(-c3ccc4c(c3)OCO4)n(Cc3ccc4c(c3)OCO4)c2c1 (stereo unspecified) | 4.4 | – | – | – | – | –
4 | 8 | 10 | 0 | 0 | 8 | 16 | 5 | 5 | 2 | 10 | COC(=O)C1=C(C)N=C(C)/C(=C(/O)OC)C1c1ccc2nc(-c3ccc(OC)c(OC)c3)n(Cc3ccc(OC)c(OC)c3)c2c1 (stereo unspecified) | – | – | – | 4 | – | –
5 | 8 | 10 | 0 | 0 | 5 | 17 | 9 | 10 | 5 | 20 | COC(=O)C1=C(C)N=C(C)/C(=C(\O)OC)C1c1cc2cc(-c3c(C)oc(C)c3C(=O)OC)ccc2nc1Cl (stereo unspecified) | – | – | – | – | 1.8 | –
6 | 36 | 26 | 10 | 4 | 16 | 34 | 15 | 13 | 9 | 31 | COC(=O)C1=C(C)N=C(C)/C(=C(/O)OC)C1c1ccc(C2C(C(=O)OC)=C(C)N=C(C)/C2=C(/O)OC)cc1 (stereo unspecified) | – | – | – | – | – | 6.2
